Reference: patent US20170360073A1, “OPTIMIZED NUTRIENT FATTY ACID COMPOSITION” (priority 2014, published 2017)

System: patients with menopausal symptoms
Assay: Case study: menopausal symptoms, transdermal estriol in oil (Example 15)
Type: in vivo, human
Conditions: after 15 and 30 days; one patient each: estriol 1 mg oral tablet daily; example 7 oil 0.5 ml twice daily on skin (0.25 mg estriol daily); oral multivitamin and minerals tablet
Protocol: Three patients with menopausal symptoms were taken for study. The patients were divided into three groups. First patient was advised to take orally estriol one mg as tablet daily. Second patient was advised to apply over skin of thighs and abdomen 0.5 ml twice daily medicated optimized nutrient oil prepared by a process as given in example-7 which contains 0.25 mg estriol/ml, so that 0.25 mg estriol is absorbed daily by the body through skin. Third patient was given oral multivitamin and minerals as tablet.

C[C@]12CC[C@@H]3c4ccc(O)cc4CC[C@H]3[C@@H]1C[C@@H](O)[C@@H]2O [estriol]
hot flushes, mood changes and sleep pattern: improvement in all the three symptoms
